US11180504B2 (ORCHID PHARMA LTD., priority 2016, dated 2021)
Converted amounts (≈) assume the structure as drawn. Read-outs that look alike come from different tables or passages of the source.

How the values were obtained:
[1] = system: carbapenem sensitive Escherichia coli; test: MIC by broth micro-dilution (CLSI), carbapenem sensitive E. coli; type: cell-based; settings: Escherichia coli
[2] = system: carbapenem sensitive Pseudomonas aeruginosa; test: MIC by broth micro-dilution (CLSI), carbapenem sensitive P. aeruginosa; type: cell-based; settings: Pseudomonas aeruginosa
[3] = system: carbapenemase producing K. pneumoniae; test: MIC by broth micro-dilution (CLSI), carbapenemase producing K. pneumoniae; type: cell-based, Klebsiella pneumoniae; settings: Klebsiella pneumoniae
[4] = system: extended spectrum β lactamase (ESBL) SHV18 producing Klebsiella pneumoniae; test: MIC by broth micro-dilution (CLSI), ESBL SHV18 producing K. pneumoniae; type: cell-based; settings: Klebsiella pneumoniae, ATCC700603, 22 h
[5] = system: methicillin-sensitive Staphylococcus aureus; test: MIC by broth micro-dilution (CLSI), methicillin-sensitive S. aureus; type: cell-based; settings: Staphylococcus aureus, ATCC 29213 / MSSA
[6] = ATCC25922, ESBL −ve E. coli ATCC25922, read-out: MIC
[7] = ATCC27853, Meropenem susceptible P. aeruginosa ATCC27853, read-out: MIC
[8] = ATCCBAA1705, KPC-2 K. pneumoniae ATCC BAA-1705, read-out: MIC
[9] = ESBL +ve (SHV-18) K. pneumoniae ATCC700603, read-out: MIC
[10] = MSSA S. aureus ATCC29213, read-out: MIC

SMILES	MIC [1, 6] [µg/mL]	MIC [2, 7] [µg/mL]	MIC [3, 8] [µg/mL]	MIC [4, 9] [µg/mL]	MIC [5, 10] [µg/mL]	MIC ([1]; ATCC25922) [µg/mL]	MIC ([2]; ATCC27853) [µg/mL]	MIC ([3]; ATCCBAA1705) [µg/mL]	MIC [4] [µg/mL]	MIC [5] [µg/mL]
CC(C)CC(F)(F)C(=O)N[C@H](C)[C@H]1C(=O)N2C(C(=O)O)=C(S[C@@H]3CN[C@H](C(=O)N(C)C)C3)[C@H](C)[C@H]12 [Example 83]	64 (≈ 124 µM)	> 128	> 128	> 128	2 (≈ 3.87 µM)					
C[C@@H](NC(=O)C(F)F)[C@H]1C(=O)N2C(C(=O)O)=C(S[C@@H]3CN[C@H](CNS(C)(=O)=O)C3)[C@H](C)[C@H]12 [Example 85]	0.5 (≈ 1.01 µM)	64 (≈ 129 µM)	2 (≈ 4.03 µM)	2 (≈ 4.03 µM)	1 (≈ 2.01 µM)					
C[C@@H](NS(=O)(=O)CC(F)(F)F)[C@H]1C(=O)N2C(C(=O)O)=C(S[C@@H]3CN[C@H](C(=O)N(C)C)C3)[C@H](C)[C@H]12 [Example 86]	1 (≈ 1.89 µM)	128 (≈ 242 µM)	8 (≈ 15.1 µM)	8 (≈ 15.1 µM)	2 (≈ 3.78 µM)					
C[C@@H](NC(=O)C(F)(F)C(F)(F)F)[C@H]1C(=O)N2C(C(=O)O)=C(S[C@@H]3CN[C@H](C(=O)N(C)C)C3)[C@H](C)[C@H]12 [Example 87]	1 (≈ 1.89 µM)	64 (≈ 121 µM)	8 (≈ 15.1 µM)	8 (≈ 15.1 µM)	2 (≈ 3.78 µM)					
C[C@@H](NC(=O)C(F)F)[C@H]1C(=O)N2C(C(=O)O)=C(Sc3nc(-c4ccncc4)cs3)[C@H](C)[C@H]12 [Example 88]	128 (≈ 266 µM)	> 128	> 128	> 128	0.25 (≈ 0.52 µM)					
C[C@@H](NC(=O)C(F)F)[C@H]1C(=O)N2C(C(=O)O)=C(S[C@@H]3CN[C@H](CNC(=O)N(C)C)C3)[C@H](C)[C@H]12 [Example 89]	0.5 (≈ 1.02 µM)	128 (≈ 261 µM)	4 (≈ 8.17 µM)	8 (≈ 16.3 µM)	0.5 (≈ 1.02 µM)					
C[C@@H](NC(=O)C(F)F)[C@H]1C(=O)N2C(C(=O)O)=C(S[C@@H]3CN[C@H](CN4CCOCC4)C3)[C@H](C)[C@H]12 [Example 90]	1 (≈ 2.05 µM)	128 (≈ 262 µM)	4 (≈ 8.19 µM)	32 (≈ 65.5 µM)	1 (≈ 2.05 µM)					
COP(=O)(CC(=O)N[C@H](C)[C@H]1C(=O)N2C(C(=O)O)=C(S[C@@H]3CN[C@H](C(=O)N(C)C)C3)[C@H](C)[C@H]12)OC [Example 91]						4 (≈ 7.51 µM)	> 128	32 (≈ 60.1 µM)	32 (≈ 60.1 µM)	16 (≈ 30 µM)
C[C@@H](NC(=O)C(F)F)[C@H]1C(=O)N2C(C(=O)O)=C(SCCN)[C@H](C)[C@H]12 [Example 92]	0.5 (≈ 1.38 µM)	32 (≈ 88.1 µM)	4 (≈ 11 µM)	4 (≈ 11 µM)	1 (≈ 2.75 µM)					
C[C@@H](NC(=O)C(F)F)[C@H]1C(=O)N2C(C(=O)O)=C(SCCNC(=O)OC(C)(C)C)[C@H](C)[C@H]12 [Example 93]	128 (≈ 276 µM)	> 128	> 128	> 128	16 (≈ 34.5 µM)					

Continued, in another order:

MIC [1, 6] [µg/mL]	MIC [2, 7] [µg/mL]	MIC [3, 8] [µg/mL]	MIC [4, 9] [µg/mL]	MIC [5, 10] [µg/mL]	SMILES	MIC ([1]; ATCC25922) [µg/mL]	MIC ([2]; ATCC27853) [µg/mL]	MIC ([3]; ATCCBAA1705) [µg/mL]	MIC [4] [µg/mL]	MIC [5] [µg/mL]
64	> 128	> 128	> 128	0.25	C[C@@H](NC(=O)C(F)F)[C@H]1C(=O)N2C(C(=O)O)=C(Sc3nc(-c4cc[n+](C)cc4)cs3)[C@H](C)[C@H]12 [Example 94]					
1 (≈ 2.02 µM)	2 (≈ 4.04 µM)	2 (≈ 4.04 µM)	2 (≈ 4.04 µM)	32 (≈ 64.7 µM)	CNCC(=O)N[C@@H](C)[C@H]1C(=O)N2C(C(=O)O)=C(S[C@H]3CN[C@H](C(=O)N4CC[C@@H](N)C4)C3)[C@H](C)[C@H]12 [Example 95, (4R,5S,6R)-3-((3R,5S)-5-((R)-3-aminopyrrolidine-1-carbonyl)pyrrolidin-3-ylthio)-4-methyl-6-((S)-1-(2-(methylamino)acetamido)ethyl)-7-oxo-1-azabicyclo[3.2.0]hept-2-ene-2-carboxylic acid]					
4 (≈ 9.72 µM)	> 128	32 (≈ 77.8 µM)	64 (≈ 156 µM)	1 (≈ 2.43 µM)	C[C@@H](NC(=O)C(F)F)[C@H]1C(=O)N2C(C(=O)O)=C(SCc3cccnc3)[C@H](C)[C@H]12 [Example 96]					
8 (≈ 19.4 µM)	> 128	64 (≈ 156 µM)	128 (≈ 311 µM)	1 (≈ 2.43 µM)	C[C@@H](NC(=O)C(F)F)[C@H]1C(=O)N2C(C(=O)O)=C(SCc3ccncc3)[C@H](C)[C@H]12 [Example 97]					
8 (≈ 17.1 µM)	> 128	32 (≈ 68.3 µM)	32 (≈ 68.3 µM)	32 (≈ 68.3 µM)	CCOC(=O)CN[C@H](C)[C@H]1C(=O)N2C(C(=O)O)=C(S[C@@H]3CN[C@H](C(=O)N(C)C)C3)[C@H](C)[C@H]12 [Example 98]					
64 (≈ 145 µM)	16 (≈ 36.3 µM)	64 (≈ 145 µM)	16 (≈ 36.3 µM)	128 (≈ 291 µM)	C[C@@H](NCC(=O)O)[C@H]1C(=O)N2C(C(=O)O)=C(S[C@@H]3CN[C@H](C(=O)N(C)C)C3)[C@H](C)[C@H]12 [Example 99]					
